The target of the experiment is T1, ELIC (Erwinia chrysanthemi ligand-gated ion channel) (Dickeya chrysanthemi, UniProt P0C7B7).
T1 sequence (P0C7B7 1-321): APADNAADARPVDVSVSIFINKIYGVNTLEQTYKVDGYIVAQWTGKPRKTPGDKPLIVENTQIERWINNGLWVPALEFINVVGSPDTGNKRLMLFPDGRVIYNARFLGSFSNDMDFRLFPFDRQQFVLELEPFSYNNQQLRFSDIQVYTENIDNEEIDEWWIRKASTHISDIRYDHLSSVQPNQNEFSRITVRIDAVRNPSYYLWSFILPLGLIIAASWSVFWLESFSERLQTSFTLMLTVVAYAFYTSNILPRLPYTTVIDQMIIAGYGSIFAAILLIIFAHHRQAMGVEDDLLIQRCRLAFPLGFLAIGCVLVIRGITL
The experiment is described as follows: ITC. In kind it is cell-based.

Molecules are shown by their SMILES.

In the case of `NCCCO` [3-AP, 3-amino propanol], the EC50 – broadly, the concentration needed to bring the measured effect to its halfway point – came to 10.02 ± 0.05 mM.

The values above are taken from paper PMC4586589 (The Journal of General Physiology, 2015).
